Where two headings read alike, the source gives them in different places. Numbered stars: 1 amine (or outer) side, 2 acyl side, 3 side chain; on linkers, the order of the positions; unused ones are H or OH. Square brackets hold non-standard residues; d marks the D form. Side chains are listed from the residue outwards. Peptide text beside a SMILES is read from it. * marks the point of attachment. γGlu = O=C(O)[C@H](CCC(=O)[*:2])N[*:1]; Stearoyl = CCCCCCCCCCCCCCCCCC(=O)*; αMeF = C[C@](N)(Cc1ccccc1)C(=O)O; Myristoyl = CCCCCCCCCCCCCC(=O)*; αMeK = C[C@](N)(CCCCN)C(=O)O; Lauroyl = CCCCCCCCCCCC(=O)*; αMeS = C[C@](N)(CO)C(=O)O; AEEA = NCCOCCOCC(=O)O; Aib = CC(C)(N)C(=O)O

This note sets out measurements from patent publication US10414811B2, “Protease-resistant lipidated GLP-1 analogs” (MEDIMMUNE LIMITED, priority 2015, dated 2019).

The target in one assay is T1, GLP-1R (INS1e assay) (Rattus norvegicus, UniProt P32301).
T1 construct: endogenous in cells; host or cells: INS-1E cells
T1 sequence (P32301 22-463): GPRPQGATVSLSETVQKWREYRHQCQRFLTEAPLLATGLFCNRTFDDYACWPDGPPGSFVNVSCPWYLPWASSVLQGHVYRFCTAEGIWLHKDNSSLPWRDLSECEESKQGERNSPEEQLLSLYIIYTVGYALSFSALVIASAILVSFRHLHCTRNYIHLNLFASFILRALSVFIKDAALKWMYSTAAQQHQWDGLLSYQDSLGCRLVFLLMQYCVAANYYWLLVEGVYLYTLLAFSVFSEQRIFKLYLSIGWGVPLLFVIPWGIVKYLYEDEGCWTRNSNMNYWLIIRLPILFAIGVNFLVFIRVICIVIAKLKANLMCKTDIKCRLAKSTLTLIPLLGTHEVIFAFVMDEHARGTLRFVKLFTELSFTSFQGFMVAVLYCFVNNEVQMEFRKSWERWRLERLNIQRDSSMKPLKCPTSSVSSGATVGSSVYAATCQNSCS
Description: INS1e assay, cAMP activity at GLP-1R. It is filed as cell-based. The following applies: bis-lipidated peptides. How it is done: cAMP levels are measured using a commercially available cAMP dynamic 2 HTRF kit (Cisbio, Cat #62AM4PEJ), following the two step protocol as per manufacturer's recommendations. In brief; anti-cAMP cryptate (donor fluorophore) and cAMP-d2 (acceptor fluorophore) are made up separately by diluting each 1/20 in conjugate & lysis buffer provided in the kit. 5 μL anti-cAMP cryptate is added to wells of the assay plate, and 5 μL cAMP-d2 is added to wells except non-specific binding (NSB) wells, to which conjugate and lysis buffer are added. […] EC50 values of the synthetic peptides determined in cAMP assays are then determined.

For assay [1], the target named is T2, human GLP-1 receptor (GLP-1R) (Homo sapiens, UniProt P43220).
T2 construct: expressed in transfected cells
T2 sequence (P43220 24-463): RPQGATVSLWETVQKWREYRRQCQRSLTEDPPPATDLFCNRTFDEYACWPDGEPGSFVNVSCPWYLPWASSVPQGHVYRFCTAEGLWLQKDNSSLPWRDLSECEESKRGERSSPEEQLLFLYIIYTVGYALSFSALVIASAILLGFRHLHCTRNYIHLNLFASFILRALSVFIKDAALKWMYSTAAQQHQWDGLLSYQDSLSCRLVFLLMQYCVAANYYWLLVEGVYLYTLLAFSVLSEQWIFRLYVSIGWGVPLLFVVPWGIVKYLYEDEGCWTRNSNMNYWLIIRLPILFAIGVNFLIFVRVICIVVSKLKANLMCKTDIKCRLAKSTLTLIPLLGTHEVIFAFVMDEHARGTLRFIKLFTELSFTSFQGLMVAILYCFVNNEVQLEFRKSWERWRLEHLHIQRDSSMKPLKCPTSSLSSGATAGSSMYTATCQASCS
Description: cAMP assay, human GLP-1R cells. It is filed as cell-based. The following applies: bis-lipidated peptides. In a few lines:
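Peptide-stimulated cAMP measured by two-step HTRF after a 30 min room-temperature incubation with receptor-expressing cells (hGLP-1R, hGIPR at 1×10^5 cells/ml; hGCGR at 2×10^5 cells/ml). Duplicate dilutions; EC50 from 4-parameter logistic fit of % Delta F.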
In general terms: Cyclic AMP is a second messenger, typically raised through Gs and lowered through Gi signalling.

The mark [2] stands for this setting: mean of n1 and n2, read-out: INS1e assay EC50 Mean pM GLP-1R.
[3] abbreviates: replicate n1, read-out: INS1e assay EC50 GLP-1R n1.
Setting [4] is: replicate n2, read-out: INS1e assay EC50 GLP-1R n2.
The mark [5] stands for this setting: mean of n1 and n2, read-out: Primary assay EC50 Mean pM GLP-1R.
[6] abbreviates: replicate n1, read-out: Primary assay EC50 GLP-1R n1.
The mark [7] stands for this setting: replicate n2, read-out: Primary assay EC50 GLP-1R n2.

`CCCCCCCCCCCCCCCCCC(=O)N[C@@H](CCC(=O)NCCOCCOCC(=O)NCCOCCOCC(=O)NCCCC[C@H](NC(=O)[C@H](C)NC(=O)[C@@H](NC(=O)[C@](C)(Cc1ccccc1)NC(=O)[C@H](CCC(=O)O)NC(=O)[C@](C)(CCCCN)NC(=O)[C@H](C)NC(=O)[C@H](C)NC(=O)[C@H](CCC(=O)O)NC(=O)CNC(=O)[C@H](CCC(=O)O)NC(=O)[C@H](CC(C)C)NC(=O)[C@H](CCCCNC(=O)COCCOCCNC(=O)COCCOCCNC(=O)CC[C@H](NC(=O)CCCCCCCCCCCCCCCCC)C(=O)O)NC(=O)[C@H](CO)NC(=O)[C@](C)(CO)NC(=O)[C@@H](NC(=O)[C@H](CC(=O)O)NC(=O)[C@H](CO)NC(=O)[C@@H](NC(=O)[C@](C)(Cc1ccccc1)NC(=O)[C@H](CO)NC(=O)CNC(=O)[C@H](CCC(=O)O)NC(=O)C(C)(C)NC(=O)[C@@H](N)Cc1c[nH]cn1)[C@@H](C)O)C(C)C)[C@@H](C)CC)C(=O)N[C@H](C(=O)N[C@H](C(=O)N[C@@H](CCC(=O)O)C(=O)NCC(=O)NCC(N)=O)C(C)C)C(C)C)C(=O)O` [compound 410] (H-H[Aib]EGS[αMeF]TSDV[αMeS]SK([AEEA-AEEA-γGlu-Stearoyl])LEGEAA[αMeK]E[αMeF]IAK([AEEA-AEEA-γGlu-Stearoyl])VVEGG-NH2): the EC50 on GLP-1R (INS1e assay) (setting [2]) is 780 pM; on GLP-1R (INS1e assay) (setting [3]), 698 pM; on GLP-1R (INS1e assay) (setting [4]) it was 862 pM; in assay [1] (setting [5]), 187 pM; in assay [1] (setting [6]), 248 pM; in assay [1] (setting [7]), 126 pM.

With `CCCCCCCCCCCC(=O)N[C@@H](CCC(=O)NCCOCCOCC(=O)NCCOCCOCC(=O)NCCCC[C@H](NC(=O)[C@H](C)NC(=O)[C@@H](NC(=O)[C@H](Cc1ccccc1)NC(=O)[C@H](CCC(=O)O)NC(=O)[C@](C)(CCCCN)NC(=O)[C@H](C)NC(=O)[C@H](C)NC(=O)[C@H](CCC(=O)O)NC(=O)CNC(=O)[C@H](CCC(=O)O)NC(=O)[C@H](CC(C)C)NC(=O)[C@H](Cc1ccc(O)cc1)NC(=O)[C@H](CO)NC(=O)[C@H](CO)NC(=O)[C@H](CCCCNC(=O)COCCOCCNC(=O)COCCOCCNC(=O)CC[C@H](NC(=O)CCCCCCCCCCC)C(=O)O)NC(=O)[C@H](CC(=O)O)NC(=O)[C@H](CO)NC(=O)[C@@H](NC(=O)[C@](C)(Cc1ccccc1)NC(=O)[C@H](CO)NC(=O)CNC(=O)[C@H](CCC(=O)O)NC(=O)C(C)(C)NC(=O)[C@@H](N)Cc1c[nH]cn1)[C@@H](C)O)[C@@H](C)CC)C(=O)N[C@H](C(=O)N[C@H](C(=O)N[C@@H](CCC(=O)O)C(=O)NCC(=O)NCC(N)=O)C(C)C)C(C)C)C(=O)O` [compound 257] (H-H[Aib]EGS[αMeF]TSDK([AEEA-AEEA-γGlu-Lauroyl])SSYLEGEAA[αMeK]EFIAK([AEEA-AEEA-γGlu-Lauroyl])VVEGG-NH2), the concentration for a half-maximal effect (EC50) at GLP-1R (INS1e assay) (setting [2]) came out at 577 pM; on GLP-1R (INS1e assay) (setting [3]) it was 812 pM; on GLP-1R (INS1e assay) (setting [4]), 342 pM; in assay [1] (setting [5]) it was 8.4 pM; in assay [1] (setting [6]) it was 4.36 pM; in assay [1] (setting [7]), 12.4 pM.

With `CCCCCCCCCCCC(=O)N[C@@H](CCC(=O)NCCOCCOCC(=O)NCCOCCOCC(=O)NCCCC[C@H](NC(=O)[C@H](CO)NC(=O)[C@](C)(CO)NC(=O)[C@@H](NC(=O)[C@H](CC(=O)O)NC(=O)[C@H](CO)NC(=O)[C@@H](NC(=O)[C@](C)(Cc1ccccc1)NC(=O)[C@H](CO)NC(=O)CNC(=O)[C@H](CCC(=O)O)NC(=O)C(C)(C)NC(=O)[C@@H](N)Cc1c[nH]cn1)[C@@H](C)O)C(C)C)C(=O)N[C@@H](CC(C)C)C(=O)N[C@@H](CCC(=O)O)C(=O)NCC(=O)N[C@@H](CCC(=O)O)C(=O)N[C@@H](C)C(=O)N[C@@H](C)C(=O)N[C@@](C)(CCCCN)C(=O)N[C@@H](CCC(=O)O)C(=O)N[C@@H](Cc1ccccc1)C(=O)N[C@H](C(=O)N[C@@H](CCCCNC(=O)COCCOCCNC(=O)COCCOCCNC(=O)CC[C@H](NC(=O)CCCCCCCCCCC)C(=O)O)C(=O)N[C@@H](Cc1c[nH]c2ccccc12)C(=O)N[C@H](C(=O)N[C@H](C(=O)N[C@@H](CCC(=O)O)C(=O)NCC(=O)NCC(N)=O)C(C)C)C(C)C)[C@@H](C)CC)C(=O)O` [compound 262] (H-H[Aib]EGS[αMeF]TSDV[αMeS]SK([AEEA-AEEA-γGlu-Lauroyl])LEGEAA[αMeK]EFIK([AEEA-AEEA-γGlu-Lauroyl])WVVEGG-NH2; N-terminus assumed), the half-maximal effective concentration (EC50) at GLP-1R (INS1e assay) (setting [2]) was determined as 552 pM; on GLP-1R (INS1e assay) (setting [3]), 700 pM; at GLP-1R (INS1e assay) (setting [4]), 403 pM; in assay [1] (setting [5]), 5.4 pM; in assay [1] (setting [6]), 6.73 pM; in assay [1] (setting [7]), 4.14 pM.

For `CCCCCCCCCCCCCC(=O)N[C@@H](CCC(=O)NCCOCCOCC(=O)NCCOCCOCC(=O)NCCCC[C@H](NC(=O)[C@H](C)NC(=O)[C@@H](NC(=O)[C@](C)(Cc1ccccc1)NC(=O)[C@H](CCC(=O)O)NC(=O)[C@](C)(CCCCN)NC(=O)[C@H](C)NC(=O)[C@H](C)NC(=O)[C@H](CCC(=O)O)NC(=O)CNC(=O)[C@H](CCC(=O)O)NC(=O)[C@H](CC(C)C)NC(=O)[C@H](CCCCNC(=O)COCCOCCNC(=O)COCCOCCNC(=O)CC[C@H](NC(=O)CCCCCCCCCCCCC)C(=O)O)NC(=O)[C@H](CO)NC(=O)[C@](C)(CO)NC(=O)[C@@H](NC(=O)[C@H](CC(=O)O)NC(=O)[C@H](CO)NC(=O)[C@@H](NC(=O)[C@](C)(Cc1ccccc1)NC(=O)[C@H](CO)NC(=O)CNC(=O)[C@H](CCC(=O)O)NC(=O)C(C)(C)NC(=O)[C@@H](N)Cc1c[nH]cn1)[C@@H](C)O)C(C)C)[C@@H](C)CC)C(=O)N[C@H](C(=O)N[C@H](C(=O)N[C@@H](CCC(=O)O)C(=O)NCC(=O)NCC(N)=O)C(C)C)C(C)C)C(=O)O` [compound 408] (H-H[Aib]EGS[αMeF]TSDV[αMeS]SK([AEEA-AEEA-γGlu-Myristoyl])LEGEAA[αMeK]E[αMeF]IAK([AEEA-AEEA-γGlu-Myristoyl])VVEGG-NH2), the concentration for a half-maximal effect (EC50) was determined as 412 pM on GLP-1R (INS1e assay) (setting [2]); 376 pM at GLP-1R (INS1e assay) (setting [3]); 448 pM on GLP-1R (INS1e assay) (setting [4]); 8.9 pM in assay [1] (setting [5]); 9.96 pM in assay [1] (setting [6]); 7.89 pM in assay [1] (setting [7]).

For `CCCCCCCCCCCC(=O)N[C@@H](CCC(=O)NCCOCCOCC(=O)NCCOCCOCC(=O)NCCCC[C@H](NC(=O)[C@H](C)NC(=O)[C@@H](NC(=O)[C@](C)(Cc1ccccc1)NC(=O)[C@H](CCC(=O)O)NC(=O)[C@](C)(CCCCN)NC(=O)[C@H](C)NC(=O)[C@H](C)NC(=O)[C@H](CCC(=O)O)NC(=O)CNC(=O)[C@H](CCC(=O)O)NC(=O)[C@H](CC(C)C)NC(=O)[C@H](CCCCNC(=O)COCCOCCNC(=O)COCCOCCNC(=O)CC[C@H](NC(=O)CCCCCCCCCCC)C(=O)O)NC(=O)[C@H](CO)NC(=O)[C@](C)(CO)NC(=O)[C@@H](NC(=O)[C@H](CC(=O)O)NC(=O)[C@H](CO)NC(=O)[C@@H](NC(=O)[C@](C)(Cc1ccccc1)NC(=O)[C@H](CO)NC(=O)CNC(=O)[C@H](CCC(=O)O)NC(=O)C(C)(C)NC(=O)[C@@H](N)Cc1c[nH]cn1)[C@@H](C)O)C(C)C)[C@@H](C)CC)C(=O)N[C@H](C(=O)N[C@H](C(=O)N[C@@H](CCC(=O)O)C(=O)NCC(=O)NCC(N)=O)C(C)C)C(C)C)C(=O)O` [compound 405] (H-H[Aib]EGS[αMeF]TSDV[αMeS]SK([AEEA-AEEA-γGlu-Lauroyl])LEGEAA[αMeK]E[αMeF]IAK([AEEA-AEEA-γGlu-Lauroyl])VVEGG-NH2), the half-maximal effective concentration (EC50) on GLP-1R (INS1e assay) (setting [3]) came out at 110 pM; in assay [1] (setting [7]), 3.66 pM.

For orientation: EC50 means the concentration needed to bring the measured effect to its halfway point.
